In paper PMC9322565 (Chemmedchem, 2022):
Like-named read-outs stand apart in the source and are kept apart here.

Tests used:
[1] = system: L. major IR‐173 amastigotes; assay: Anti‐amastigote assay, intramacrophage (THP‐1), resazurin; type: cell-based, Leishmania major; settings: for IC50: read-out: Anti‐amastigote activity, IC50 ±SD, IR‐173
Method: (§1) For the anti‐amastigote assay, differentiated plates were carefully washed with PBS, followed by the addition of 200 μL of stationary phase promastigotes in RPMI 1640 medium with 2 % FBS. An MOI of 30 : 1 was used for all three Leishmania strains. […] The treated plates were incubated for 72 hours. After incubation, the plates were gently washed three times with PBS to remove any remaining extracellular parasites. The wells were then treated with 20 μL of 0.05 % sodium dodecyl sulphate in PBS for 30 seconds to lyse the host macrophages. Lysis was terminated by adding 180 μL promastigote growth medium with 10 % FBS. […] Absorbance measurements, calculations and IC50 determinations were performed as described for the antipromastigote assay (Supporting Information).

[2] = system: L. major IR‐173 promastigotes; assay: Antipromastigote assay (resazurin); type: cell-based; settings: Leishmania major, read-out: Antipromastigote activity, IC50 ±SD, IR‐173
Method: (§2) Antipromastigote assay: The antipromastigote activity of synthesized compounds was evaluated as described previously by […] al.[47] using L. donovani 9515 (MHOM/IN/95/9515) and L. major IR-173 (MHOM/IR/-173). […] Al dri c h) […] The prom astigotes were […] 25 °C. […] Therm ofisher Scientific) in the presence of: […] com pounds for IC50 determination. […] blank. […] Em etine served as the standard cytotoxic drug. […] References […]

[3] = system: L. donovani 9515 promastigotes; assay: Antipromastigote assay (resazurin); type: cell-based, Leishmania donovani; settings: for IC50: Leishmania donovani, read-out: Antipromastigote activity, IC50 ±SD, 9515
Method: as §2

[4] = system: L. donovani 9515 amastigotes; assay: Anti‐amastigote assay, intramacrophage (THP‐1), resazurin; type: cell-based, Leishmania donovani; settings: for IC50: Leishmania donovani, THP-1, L. donovani 9515 intramacrophage amastigotes, read-out: Anti‐amastigote activity, IC50 ±SD, 9515; for fold selective antiparasitic action against L. donovani amastigote in the presence of mammalian cells: HEK‐293 and THP‐1; for fold higher potency than the NF antibiotics: L. donovani amastigote; for fold more specificity for donovani amastigote than AMB: comparison of SpI2 values vs. AMB 0.4; for Selectivity index SI2: L. donovani 9515: IC50 HEK‐293/IC50 amastigote; for Specificity index SpI2: L. donovani 9515: IC50 promastigote/IC50 amastigote; for Selectivity index SI4: L. donovani 9515: IC50 THP‐1/IC50 amastigote
Method: as §1

[5] = Macrophage toxicity, resazurin assay; type: cell-based; settings: human, differentiated THP‐1 macrophages, read-out: Cytotoxicity, THP‐1, IC50±SD
Method: Macrophage toxicity: Toxicity of the compounds on the differentiated host THP‐1 cells were also evaluated. As mentioned, duplicate plates of differentiated THP‐1 cells were prepared during the anti‐amastigote assay. These plates were incubated for 72 hours to differentiate, instead of replacing the growth medium with parasite‐containing medium after 48 hours. […] Blanks were growth medium without cells. The treated plates were incubated for 72 hours, followed by the addition of 50 μL of resazurin solution (0.01 % in PBS) to each well and 24‐hour incubation.

[6] = Basal cytotoxicity, resazurin assay; settings: human
[7] = Leishmania major, THP-1, L. major IR‐173 intramacrophage amastigotes
[8] = differentiated THP-1 cells (macrophages)
[9] = HEK-293 cells (ATCC CRL 1573), Cytotoxicity, HEK‐293, IC50±SD, HEK‐293 cells, resazurin

C[C@@H]1[C@H](O)[C@@H](C)/C=C/C=C/C=C/C=C/C=C/C=C/C=C/[C@H](O[C@@H]2O[C@H](C)[C@@H](O)[C@H](N)[C@@H]2O)C[C@@H]2O[C@](O)(C[C@@H](O)C[C@@H](O)[C@H](O)CC[C@@H](O)C[C@@H](O)CC(=O)O[C@H]1C)C[C@H](O)[C@H]2C(=O)O [AMB, amphotericin B, reference compound]
IC50 [1, 7]: 0.03 µM
IC50 [2]: 30 ± 10 nM
IC50 [3]: 20 nM
IC50 [4]: 0.05 µM

C#CCN1C(=O)CN(/N=C/c2ccc([N+](=O)[O-])o2)C1=O [Compound 1]
IC50 [2]: 510 ± 50 nM
IC50 at 72 h [5, 8]: 99.94 ± 0.09 µM
fold selective antiparasitic action against L. donovani amastigote in the presence of mammalian cells [4]: more than 100 fold
fold higher potency than the NF antibiotics [4]: up to 30 fold
fold more specificity for donovani amastigote than AMB [4]: 20 fold

CCCCCn1cc(CN2C(=O)CN(/N=C/c3ccc([N+](=O)[O-])o3)C2=O)nn1 [Compound 2]
IC50 [2]: 90 nM
IC50 at 72 h [5, 8]: > 100 µM
IC50 [6, 9]: > 100 µM

CCCCCCn1cc(CN2C(=O)CN(/N=C/c3ccc([N+](=O)[O-])o3)C2=O)nn1 [Compound 3]
IC50 [2]: 480 ± 20 nM
IC50 [6, 9]: 17.9 ± 1.3 µM

CCCCCCCn1cc(CN2C(=O)CN(/N=C/c3ccc([N+](=O)[O-])o3)C2=O)nn1 [Compound 4]
IC50 [2]: 6850 ± 440 nM
IC50 [3]: 180 ± 50 nM
IC50 at 72 h [5, 8]: > 100 µM
IC50 [6, 9]: > 100 µM
fold selective antiparasitic action against L. donovani amastigote in the presence of mammalian cells [4]: more than 100 fold
fold higher potency than the NF antibiotics [4]: up to 30 fold

CCCCCCCCn1cc(CN2C(=O)CN(/N=C/c3ccc([N+](=O)[O-])o3)C2=O)nn1 [Compound 5]
IC50 [2]: 270 ± 20 nM
IC50 [6, 9]: 31.9 ± 3.55 µM

CCCCCCCCCn1cc(CN2C(=O)CN(/N=C/c3ccc([N+](=O)[O-])o3)C2=O)nn1 [Compound 6]
IC50 [2]: 6510 ± 1130 nM
IC50 [3]: 4680 ± 320 nM
IC50 at 72 h [5, 8]: > 100 µM
IC50 [6, 9]: 43.8 ± 4.13 µM
Selectivity index SI2 [4]: 12
Specificity index SpI2 [4]: 1.3
fold more specificity for donovani amastigote than AMB [4]: 3 fold

CCCCCCCCCCn1cc(CN2C(=O)CN(/N=C/c3ccc([N+](=O)[O-])o3)C2=O)nn1 [Compound 7]
Selectivity index SI1 ([1]; L. major IR‐173: IC50 HEK‐293/IC50 amastigote): 10
Selectivity index SI3 ([1]; L. major IR‐173: IC50 THP‐1/IC50 amastigote): > 15
IC50 ([1]; L. major IR‐173 intramacrophage amastigotes): 6.72 µM
IC50 [1, 7]: < 10 µM
IC50 [2]: 340 ± 20 nM
Antipromastigote activity, IC50 ±SD, 9515 [3]: inactive
IC50 at 72 h [5, 8]: > 100 µM
IC50 [6, 9]: 67.1 ± 5.22 µM
Selectivity index SI2 [4]: 11
Selectivity index SI4 [4]: > 16
IC50 [4]: 6.17 ± 0.47 µM

CCCCCCCCCCCn1cc(CN2C(=O)CN(/N=C/c3ccc([N+](=O)[O-])o3)C2=O)nn1 [Compound 8]
IC50 [2]: 1240 ± 130 nM
IC50 [3]: 1600 ± 80 nM
IC50 at 72 h [5, 8]: > 100 µM
IC50 [6, 9]: 20.3 ± 3.15 µM
Selectivity index SI2 [4]: 5
Selectivity index SI4 [4]: > 22
Specificity index SpI2 [4]: 0.4
IC50 [4]: 4.49 µM

CCCCCCCCCCCCn1cc(CN2C(=O)CN(/N=C/c3ccc([N+](=O)[O-])o3)C2=O)nn1 [Compound 9]
IC50 [2]: 380 ± 10 nM
IC50 at 72 h [5, 8]: > 100 µM

O=C1CN(/N=C/c2ccc([N+](=O)[O-])o2)C(=O)N1Cc1cn(CCc2ccc([N+](=O)[O-])cc2)nn1 [Compound 10]
IC50 [2]: 170 nM
IC50 at 72 h [5]: > 100 µM
IC50 [6]: 43.7 ± 3.37 µM

O=C1CN(/N=C/c2ccc([N+](=O)[O-])o2)C(=O)N1Cc1cn(Cc2ccccc2)nn1 [Compound 11]
IC50 [2]: 680 ± 130 nM
IC50 [6, 9]: 21 ± 3.25 µM

Cc1ccc(Cn2cc(CN3C(=O)CN(/N=C/c4ccc([N+](=O)[O-])o4)C3=O)nn2)cc1 [Compound 12]
IC50 [2]: 340 ± 110 nM
IC50 [6, 9]: 41.8 ± 1.21 µM
